Legend:
Assay type in all cases: in vivo
[1] = tested on: Amaranthus retoflexus (AMARE); assay: Pre-emergence Test (glasshouse, percentage damage to the plant); conditions: 1000 g/ha unless otherwise stated, five-point scale
[2] = tested on: Ipomoea hederacea (IPOHE); assay: as above; conditions: 1000 g/ha unless otherwise stated, five-point scale
[3] = tested on: Echinochloa crus-galli (ECHCG); assay: as above; conditions: 1000 g/ha unless otherwise stated, five-point scale
Solanum nigrum (SOLNI) [4] = assay: as above; conditions: 1000 g/ha unless otherwise stated, five-point scale
[5] = tested on: Amaranthus retoflexus (AMARE); assay: Post-emergence Test (glasshouse, percentage damage to the plant); conditions: post-emergence spray, 1000 g/ha unless otherwise stated, evaluated after 13 days
Outline: (§1)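 Scored 13 days after spraying as percentage plant damage in five bands (5=81–100%, 4=61–80%, 3=41–60%, 2=21–40%, 1=0–20%). Spray at 1000 g/ha unless stated, in acetone/water 50:50 plus 0.5% Tween 20, onto sown glasshouse pots (24/16 °C, 14 h light, 65% humidity).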

Setaria faberi (SETFA) [6] = assay: as above; conditions: post-emergence spray, 1000 g/ha unless otherwise stated, evaluated after 13 days
Outline: (§2)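 Sown pots; spray 1000 g/ha (unless stated) in acetone/water 50:50 + 0.5% Tween 20; glasshouse 24/16 °C, 14 h light, 65% RH; watered twice daily; % damage read at 13 days, scored 1–5.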

Solanum nigrum (SOLNI) [7] = assay: as above; conditions: post-emergence spray, 1000 g/ha unless otherwise stated, evaluated after 13 days
Outline: as §1

Lolium perenne (LOLPE) [8] = assay: as above; conditions: post-emergence spray, 1000 g/ha unless otherwise stated, evaluated after 13 days
Outline: as §1

[9] = tested on: Ipomoea hederacea (IPOHE); assay: as above; conditions: post-emergence spray, 1000 g/ha unless otherwise stated, evaluated after 13 days
Outline: as §2

[10] = tested on: Echinochloa crus-galli (ECHCG); assay: as above; conditions: post-emergence spray, 1000 g/ha unless otherwise stated, evaluated after 13 days
Outline: as §1

Setaria faberi (SETFA) [11] = assay: Pre-emergence Test (glasshouse, percentage damage to the plant); conditions: 1000 g/ha unless otherwise stated, five-point scale
Lolium perenne (LOLPE) [12] = assay: as above; conditions: 1000 g/ha unless otherwise stated, five-point scale

| SMILES | percentage damage to the plant, AMARE [1] | percentage damage to the plant, IPOHE [2] | percentage damage to the plant, ECHCG [3] | percentage damage to the plant, SOLNI (Solanum nigrum (SOLNI) [4]) | Post-emergence Test AMARE, percentage damage to the plant (five-point scale) [5] | Post-emergence Test SETFA, percentage damage to the plant (five-point scale) (Setaria faberi (SETFA) [6]) | Post-emergence Test SOLNI, percentage damage to the plant (five-point scale) (Solanum nigrum (SOLNI) [7]) | Post-emergence Test LOLPE, percentage damage to the plant (five-point scale) (Lolium perenne (LOLPE) [8]) | Post-emergence Test IPOHE, percentage damage to the plant (five-point scale) [9] | Post-emergence Test ECHCG, percentage damage to the plant (five-point scale) [10] | percentage damage to the plant, SETFA (Setaria faberi (SETFA) [11]) | percentage damage to the plant, LOLPE (Lolium perenne (LOLPE) [12]) |
| --- | --- | --- | --- | --- | --- | --- | --- | --- | --- | --- | --- | --- |
| CCn1c(C)c(-c2ccc(F)c(Cl)c2)c(=O)c(C(=O)O)c1-c1ccc(Cl)c(Cl)c1 [Compound 22, 5-(3-chloro-4-fluoro-phenyl)-2-(3,4-dichlorophenyl)-1-ethyl-6-methyl-4-oxo-pyridine-3-carboxylic acid] | 2 (2=21-40%) | 1 (1=0-20%) | 1 (1=0-20%) | 2 (2=21-40%) | 5 (5=81-100%) | 4 (4=61-80%) | 4 (4=61-80%) | 2 (2=21-40%) | 3 (3=41-60%) | 2 (2=21-40%) | 3 (3=41-60%) | 2 (2=21-40%) |
| CCn1c(C)c(-c2csc(Cl)c2)c(=O)c(C(=O)O)c1-c1ccc(Cl)c(Cl)c1 [Compound 37, 5-(5-chloro-3-thienyl)-2-(3,4-dichlorophenyl)-1-ethyl-6-methyl-4-oxo-pyridine-3-carboxylic acid] | 1 (1=0-20%) | 1 (1=0-20%) | 1 (1=0-20%) | 1 (1=0-20%) | 1 (1=0-20%) | 1 (1=0-20%) | 4 (4=61-80%) | 1 (1=0-20%) | 3 (3=41-60%) | 1 (1=0-20%) | 1 (1=0-20%) | 1 (1=0-20%) |
| CCn1c(C)c(-c2ccc([N+](=O)[O-])cc2)c(=O)c(C(=O)O)c1-c1ccc(Cl)c(Cl)c1 [Compound 36, 2-(3,4-dichlorophenyl)-1-ethyl-6-methyl-5-(4-nitrophenyl)-4-oxo-pyridine-3-carboxylic acid] | 1 (1=0-20%) | 1 (1=0-20%) | 5 (5=81-100%) | 3 (3=41-60%) | 1 (1=0-20%) | 4 (4=61-80%) | 2 (2=21-40%) | 1 (1=0-20%) | 1 (1=0-20%) | 5 (5=81-100%) | 5 (5=81-100%) | 1 (1=0-20%) |
| CCn1c(C)c(-c2ccc(OC)nc2)c(=O)c(C(=O)O)c1-c1ccc(Cl)c(Cl)c1 [Compound 126, 2-(3,4-dichlorophenyl)-1-ethyl-5-(6-methoxy-3-pyridyl)-6-methyl-4-oxo-pyridine-3-carboxylic acid] | 5 (5=81-100%) | 3 (3=41-60%) | 2 (2=21-40%) | 4 (4=61-80%) | 5 (5=81-100%) | 5 (5=81-100%) | 5 (5=81-100%) | 2 (2=21-40%) | 4 (4=61-80%) | 4 (4=61-80%) | 4 (4=61-80%) | 0 |
